Patent publication US6683090B1 (priority 1999, dated 2004)

Molecular target: α7 nAChR subtype (Rattus norvegicus, UniProt Q05941)
Assay type: binding
Conditions: read-out: KD of radioligand

Chain of α7 nAChR subtype (Q05941 23-502 limits assumed): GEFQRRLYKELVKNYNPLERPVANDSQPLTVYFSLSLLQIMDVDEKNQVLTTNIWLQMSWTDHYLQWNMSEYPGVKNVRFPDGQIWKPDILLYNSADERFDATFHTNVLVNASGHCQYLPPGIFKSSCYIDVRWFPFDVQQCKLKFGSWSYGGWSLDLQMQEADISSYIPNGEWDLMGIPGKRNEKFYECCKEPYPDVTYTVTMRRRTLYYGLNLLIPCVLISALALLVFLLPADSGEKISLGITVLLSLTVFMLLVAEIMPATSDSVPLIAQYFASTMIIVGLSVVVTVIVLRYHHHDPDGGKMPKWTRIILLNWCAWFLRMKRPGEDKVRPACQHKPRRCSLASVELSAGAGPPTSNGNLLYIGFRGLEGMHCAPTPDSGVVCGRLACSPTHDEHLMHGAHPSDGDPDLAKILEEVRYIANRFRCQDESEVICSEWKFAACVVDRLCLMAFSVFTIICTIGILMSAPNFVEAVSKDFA

Substance 125I-α-Bungarotoxin [^125I-α-BTX] has a Kd of 1.67 nM.
